IC50 data for 29 molecules are collected here from US5032577A, “Peptidylaminodiols” (Abbott Laboratories, priority 1987, dated 1991).

Molecules are shown by their SMILES. Structures can show the parent of a compound that is named as a salt. Where two headings read alike, the source gives them in different places.

In this experiment the target is T1, human renal renin (Homo sapiens, UniProt P00797).
T1 construct: human renal renin, free from acid proteolytic activity; from tissue
T1 sequence (P00797 67-406): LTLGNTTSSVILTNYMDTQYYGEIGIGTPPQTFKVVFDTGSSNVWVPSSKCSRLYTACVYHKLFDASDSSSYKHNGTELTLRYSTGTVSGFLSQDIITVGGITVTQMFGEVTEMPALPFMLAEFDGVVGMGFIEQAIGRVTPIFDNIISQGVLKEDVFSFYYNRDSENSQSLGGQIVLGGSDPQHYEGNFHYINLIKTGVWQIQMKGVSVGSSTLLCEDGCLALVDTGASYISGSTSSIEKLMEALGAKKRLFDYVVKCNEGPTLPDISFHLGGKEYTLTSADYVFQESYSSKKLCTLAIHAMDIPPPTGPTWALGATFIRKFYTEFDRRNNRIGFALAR
Put plainly: Inhibition of human renal renin in vitro; angiotensin I formed measured by radioimmunoassay. Format: biochemical.

Setting [1] is: human renal renin free from acid proteolytic activity, renin substrate human angiotensinogen, 37° C., pH 6.0.

The term IC50 denotes the point on the concentration scale where inhibition reaches its midpoint. A lower IC50 goes with greater potency in that assay. Molecule `CC(C)C[C@H](O)[C@H](O)[C@H](CC1CCCCC1)NC(=O)[C@H](Cc1c[nH]cn1)NC(=O)C(CC(=O)N1CCOCC1)Oc1ccccc1` (single isomer, unassigned) [Example 141] displayed an IC50 of 5.5 nM.
The same measure, in the same setting: under `CC(C)C[C@H](O)[C@H](O)[C@H](CC1CCCCC1)NC(=O)[C@H](Cc1c[nH]cn1)NC(=O)C(CC(=O)N1CCOCC1)Cc1ccccc1` (single isomer, unassigned) [Example 143] stands 0.3 nM.
`CC(C)(C)OC(=O)N[C@@H](Cc1ccccc1)C(=O)N[C@@H](Cc1c[nH]cn1)C(=O)N[C@@H](CC1CCCCC1)[C@@H](O)CO` [Example 6, Boc-Phe-His Amides of 3(S)-Amino-4-cyclohexyl-1,2(R)-dihydroxybutane] gave an IC50 under setting [1] of 50 nM.
Still for that read-out and setting: under `CC(C)C[C@H](O)[C@H](O)[C@H](CC1CCCCC1)NC(=O)[C@H](Cc1c[nH]cn1)NC(=O)[C@H](Cc1ccccc1)NC(=O)OC(C)(C)C` [Example 15, Boc-Phe-His Amide of 2(S)-Amino-l-cyclohexyl-3(R),4(S)-dihydroxy-6-methylheptane] stands 1.5 nM; under `CC(C)C[C@H](O)[C@@H](O)[C@H](CC1CCCCC1)NC(=O)[C@H](Cc1c[nH]cn1)NC(=O)[C@H](Cc1ccccc1)NC(=O)OC(C)(C)C` [Example 16, Boc-Phe-His Amide of 2(S)-Amino-l-cyclohexyl-3(S),4(S)-dihydroxy-6-methylheptane], 70 nM.
Molecule `CC(C)C[C@@H](O)[C@H](O)[C@H](CC1CCCCC1)NC(=O)[C@H](Cc1c[nH]cn1)NC(=O)[C@H](Cc1ccccc1)NC(=O)OC(C)(C)C` [Example 17, Boc-Phe-His Amide of 2(S)-Amino-l-cyclohexyl-3(R),4(R)-dihydroxy-6-methylheptane] yielded an IC50 of 35 nM.
`CC(C)C[C@@H](O)[C@@H](O)[C@H](CC1CCCCC1)NC(=O)[C@H](Cc1c[nH]cn1)NC(=O)[C@H](Cc1ccccc1)NC(=O)OC(C)(C)C` [Example 18, Boc-Phe-His Amide of 2(S)-Amino-l-cyclohexyl-3(S),4(R)-dihydroxy-6-methylheptane]: the IC50 under setting [1] is 95 nM.
Molecule `CC(C)C[C@H](O)[C@H](O)[C@H](CC1CCCCC1)NC(=O)[C@H](Cc1c[nH]cn1)NC(=O)[C@H](CC1CCCCC1)NC(=O)CC(C)(C)C` [Example 21, TBA-CHA-His Amide of 2(S)-Amino-l-cyclohexyl-3(R),4(S)-dihydroxy-6-methylheptane] displayed a 50% inhibitory concentration (IC50) of 2 nM.
Under setting [1], `CCOC(=O)N[C@@H](Cc1ccc(OC)cc1)C(=O)N[C@@H](Cc1c[nH]cn1)C(=O)N[C@@H](CC1CCCCC1)[C@@H](O)[C@@H](O)CC(C)C` [Example 22, Ethoxycarbonyl-(OCH3)Tyr-His Amide of 2(S)-Amino-1-cyclohexyl-3(R),4(S)-dihydroxy-6-methylheptane] had an IC50 of 1.5 nM.
As for `CC(=O)N(C)[C@@H](Cc1ccccc1)C(=O)N[C@@H](Cc1c[nH]cn1)C(=O)N[C@@H](CC1CCCCC1)[C@@H](O)[C@@H](O)CC(C)C` [Example 23, Acetyl-N-methylPhe-His Amide of 2(S)-Amino-1-cyclohexyl-3(R),4(S)-dihydroxy-6-methylheptane], inhibition was half-maximal at 10 nM (IC50).
`CC(=O)O[C@@H](Cc1ccccc1)C(=O)N[C@@H](Cc1c[nH]cn1)C(=O)N[C@@H](CC1CCCCC1)[C@@H](O)[C@@H](O)CC(C)C` [Example 24, Ac-Pl-His Amide of 2(S)-Amino-l-cyclohexyl-3(R),4(S)-dihydroxy-6-methylheptane] returned an IC50 of 2 nM.
On the same count and under the same terms, in the case of `CC(C)C[C@H](O)[C@H](O)[C@H](CC1CCCCC1)NC(=O)[C@H](Cc1c[nH]cn1)NC(=O)C(Cc1ccccc1)Cc1ccccc1` [Example 27, Dba-His Amide of 2(S)-Amino-l-cyclohexyl-3(R),4(S)-dihydroxy-6-methylhectane] it was 7 nM; in that of `CC(C)C[C@H](O)[C@H](O)[C@H](CC1CCCCC1)NC(=O)[C@H](Cc1c[nH]cn1)NC(=O)CCc1ccccc1` [Example 28, Pp-His Amide of 2(S)-Amino-l-cyclohexyl-3(R),4(S)-dihydroxy-6-methylheptane], 80 nM.
Under setting [1], `CC(C)C[C@H](NC(=O)OC(C)(C)C)C(=O)N[C@@H](Cc1c[nH]cn1)C(=O)N[C@@H](CC1CCCCC1)[C@@H](O)[C@@H](O)CC(C)C` [Example 31, Boc-Leu-His Amide of 2(S)-Amino-l-cyclohexyl-3(R),4(S)-dihydroxy-6-methylheptane] showed a 50% inhibitory concentration (IC50) of 1 nM.
Still for that read-out and setting: in the case of `CC(C)C[C@H](O)[C@H](O)[C@H](CC1CCCCC1)NC(=O)[C@H](C)NC(=O)[C@H](Cc1ccccc1)NC(=O)OC(C)(C)C` [Example 33, Boc-phe-Ala Amide of 2(S)-Amino-l-cyclohexyl-3(R),4(S)-dihydroxy-6-methylheptane] it was 5 nM; in that of `CC(C)C[C@H](O)[C@H](O)[C@H](CC1CCCCC1)NC(=O)[C@H](Cc1ccccc1)NC(=O)[C@H](Cc1ccccc1)NC(=O)OC(C)(C)C` [Example 34, Boc-Phe-Phe Amide of 2(S)-Amino-l-cyclohexyl-3(R),4(S)-dihYdroxy-6-methYlheptane], 1.5 nM.
`CCOC(=O)N[C@@H](Cc1ccccc1)C(=O)N[C@@H](CC(C)C)C(=O)N[C@@H](CC1CCCCC1)[C@@H](O)[C@@H](O)CC(C)C` [Example 36, Ethoxycarbonyl-phe-Leu Amide of 2(S)-Amino-cyclohexyl-3(R),4(S)-dihydroxy-6-methylheptane] returned an IC50 of 0.4 nM.
Still for that read-out and setting: under `CC(C)CC[C@H](O)[C@H](O)[C@H](CC1CCCCC1)NC(=O)[C@H](Cc1c[nH]cn1)NC(=O)[C@H](Cc1ccccc1)NC(=O)CC(C)(C)C` [Example 43, TBA-Phe-His Amide of 2(S)-Amino-1-cyclohexyl-3(R),4(S)-dihydroxy-7-methyloctane] stands 5 nM.
`CC(C)[C@H](O)[C@H](O)[C@H](CC1CCCCC1)NC(=O)[C@H](Cc1c[nH]cn1)NC(=O)[C@H](Cc1ccccc1)NC(=O)OC(C)(C)C` [Example 46, Boc-Phe-His Amide of 2(S)-Amino-l-cyclohexyl-3(R),4(S)-dihydroxy-5-methylhexane] registered an IC50 under setting [1] of 1.5 nM.
`CCOC(=O)N[C@@H](Cc1ccccc1)C(=O)N[C@@H](CC(C)C)C(=O)N[C@@H](CC1CCCCC1)[C@@H](O)[C@@H](O)CC` [Example 47, Ethoxycarbonyl-Phe-Leu Amide of 2(S)-Amino-1-cyclohexyl-3(R),4(S)-dihydroxyhexane] came in with an IC50 of 1 nM.
The molecule `C[C@H](O)[C@H](O)[C@H](CC1CCCCC1)NC(=O)[C@H](Cc1c[nH]cn1)NC(=O)[C@H](Cc1ccccc1)NC(=O)OC(C)(C)C` [Example 49, Boc-Phe-His Amide of 2(S)-Amino-l-cyclohexyl-3(R),4(S)-dihydroxypentane] registered an IC50 under setting [1] of 2 nM.
As to `COc1ccc(C[C@H](N)C(=O)N[C@@H](CC(C)C)C(=O)N[C@@H](CC2CCCCC2)[C@@H](O)[C@@H](O)CC(C)C)cc1` [Example 55, H-(4-OCH3)Phe-Leu Amide of 2(S)-Amino-1-cyclohexyl-3(R),4(S)-dihydroxy-6-methylheptane], inhibition was half-maximal at 2 nM (IC50).
Still for that read-out and setting: under `COc1ccc(C[C@@H](C(=O)N[C@@H](CC(C)C)C(=O)N[C@@H](CC2CCCCC2)[C@@H](O)[C@@H](O)CC(C)C)N(C)C)cc1` [Example 56, (N,N-Dimethyl,4-methoxy)-Phe-Leu Amide of 2(S)-Amino-1-cyclohexyl-3(R),4(S)-dihydroxy-6-methylheptane] stands 5.5 nM; under `CC(C)C[C@H](NC(=O)[C@@H](N)Cc1ccccc1)C(=O)N[C@@H](CC1CCCCC1)[C@@H](O)[C@@H](O)CC(C)C` [Example 57, H-Phe-Leu Amide of 2(S)-Amino-l-cyclohexyl-3(R),4(S)-dihydroxY-6-methylheptane], 7.5 nM; under `CC(C)C[C@H](NC(=O)[C@H](Cc1ccccc1)NCCC#N)C(=O)N[C@@H](CC1CCCCC1)[C@@H](O)[C@@H](O)CC(C)C` [Example 58, [N-(2-Cyanoethyl)]Phe-Leu Amide of 2(S)-Amino-1-cyclohexyl-3(R),4(S)-dihydroxy-6-methylheptane], 7 nM.
Same read-out and setting: in the case of `CC(C)C[C@H](O)[C@H](O)[C@H](CC1CCCCC1)NC(=O)[C@H](Cc1c[nH]cn1)NC(=O)[C@H](Cc1ccccc1)NC(=O)CCNC(=O)OCc1ccccc1` [Example 61, Cbz-β-Ala-Phe-His Amide of 2(S)-Amino-l-cyclohexyl-3(R),4(S)-dihydroxy-6-methylheptane] it was 0.55 nM; in that of `CC(C)C[C@H](O)[C@H](O)[C@H](CC1CCCCC1)NC(=O)[C@H](Cc1c[nH]cn1)NC(=O)[C@H](Cc1ccccc1)NC(=O)CCN` [Example 62, H-β-Ala-Phe-His Amide of 2(S)-Amino-l-cyclohexyl-3(R), 4(S)-dihydroxy-6-methylheptane Diacetic Acid Salt], 2 nM.
On the same count and under the same terms, under `CC(C)C[C@H](O)[C@H](O)[C@H](CC1CCCCC1)NC(=O)[C@H](Cc1c[nH]cn1)NC(=O)[C@H](Cc1ccccc1)NC(=O)CN(C)C(=O)OCc1ccccc1` [Example 63, Cbz-Sar-phe-His Amide of 2(S)-Amino-l-cyclohexyl-3(R),4(S)-dihydroxy-6-methylheptane] stands 0.45 nM; under `CNCC(=O)N[C@@H](Cc1ccccc1)C(=O)N[C@@H](Cc1c[nH]cn1)C(=O)N[C@@H](CC1CCCCC1)[C@@H](O)[C@@H](O)CC(C)C` [Example 64, H-Sar-Phe-His Amide of 2(S)-Amino-l-cyclohexyl-3(R),4(S)-dihydroxy-6-methylheptane Diacetic Acid Salt], 3 nM.
